Test results from patent publication US20110110891A1, “Methods of Treating Hepatitis C Virus Infection” (priority 2008, published 2011).
pIC50: −log10 of the molar value.

Key:
HCV [1] = assay: HCV RNA in supernatant of eGFP-Jc1 transfected Huh7.5 cells (qRT-PCR); assay type: cell-based, Hepatitis C virus; conditions: 10 μM, Day 3
Protocol: (§1) Day 0: Huh7.5 cells were transfected with an eGFP-Jc1 reporter construct RNA via electroporation (10 μg RNA per 4×10^6 cells). The eGFP-Jc1 reporter construct is a modified version of the Jc1 (J6/C3 chimera) described by Pietschmann et al. (2006) PNAS 103(19): 7408-7413, in which an eGFP (enhanced green fluorescent protein)-IRES (internal ribosomal entry site) cassette has been inserted between the 5′UTR and the open reading frame of the Jc1 construct.
(§2) Transfected cells were then plated at 2×10^6 cells per T75 flask.
(§3) Day 1: The cells were washed 3 times and treated with 10 μl dimethylsulfoxide (DMSO) (control), 10 μM ERK Inhibitor II (FR180204Calbiochem) or 10 μM U0126 (Promega).
(§4) Day 3: The transfected Huh7.5 cells and the supernatant were harvested. The harvested cells and the supernatant were analyzed by quantitative reverse transcription-polymerase chain reaction (qRT-PCR) for levels of HCV RNA
(§5) Viral RNA in culture supernatants was isolated using RNA STAT-50 LS REAGENT (Tel Test). total cellular RNA or 10 μl of RNA of culture supernatant was used for cDNA synthesis using SuperScript III reverse transcriptase (Invitrogen) and random hexamer primers. Viral RNA levels were measured by quantitative real-time PCR using Taqman probes and corresponding primers.

HCV [2] = assay: Intracellular HCV RNA in eGFP-Jc1 transfected Huh7.5 cells (qRT-PCR); assay type: cell-based, Hepatitis C virus; conditions: 10 μM, Day 3
Protocol: as §1, with “The” for “Day 0: Huh7.5 cells were transfected with an eGFP-Jc1 reporter construct RNA via electroporation (10 μg RNA per 4×10^6 cells). The”
as §2, §3, §4
Total RNA was extracted from transfected cells using RNA STAT-60 REAGENT (Tel Test).
as §5

HCV [3] = conditions: 10 μM, 1 h pretreatment, anti-CD81 single-round infection
Protocol: Virus: Transfection of Huh7.5 cells with eGFP-Jc1 reporter construct RNA via electroporation (10 μg RNA per 4×10^6 cells)
Harvest virus in the supernatant (Filter & Concentrate using Amicon MWCO 100): conc 10 ml to 200 μl after 3 days
Day 0: Plate Huh7.5 at 1×10^4 cells per well […] (24 well plate)
Day 1: Pretreat cells with 10 μl DMSO or 10 μM U0126 for 1 h
Infection with 50 μl conc. virus per well for 3 h at 37° C.
Addition of 10 μg/ml anti-CD81 antibody (α-CD81) for single-round infection
Day 4: Harvest infected cells for FACS analysis.

ERK = conditions: cited from earlier work
MEK 1/2 = conditions: cited from earlier work
cdks = conditions: cited from earlier work
c-Src = c-Src (Homo sapiens, UniProt P12931); conditions: cited from earlier work
Mek = conditions: cited from earlier work
PI 3-kinase γ = PI 3-kinase γ (Homo sapiens, UniProt P48736); conditions: cited from earlier work
MEK-1 = MEK-1 (Homo sapiens, UniProt Q02750); conditions: in vitro; cited from earlier work
ERK-2 = ERK-2 (Homo sapiens, UniProt P28482); conditions: cited from earlier work
Chain of ERK-2 (P28482 whole entry, species assumed): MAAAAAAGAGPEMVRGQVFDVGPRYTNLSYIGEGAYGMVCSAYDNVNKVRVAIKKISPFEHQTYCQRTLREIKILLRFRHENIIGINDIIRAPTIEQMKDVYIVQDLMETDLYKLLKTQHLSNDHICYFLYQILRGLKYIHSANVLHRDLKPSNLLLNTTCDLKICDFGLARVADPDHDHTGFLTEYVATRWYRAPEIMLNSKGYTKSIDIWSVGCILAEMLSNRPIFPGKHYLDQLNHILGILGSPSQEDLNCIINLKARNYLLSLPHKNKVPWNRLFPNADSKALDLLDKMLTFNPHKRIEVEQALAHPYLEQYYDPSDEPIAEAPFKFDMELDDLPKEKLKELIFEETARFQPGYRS

Chain of MEK-1 (Q02750 whole entry, species assumed): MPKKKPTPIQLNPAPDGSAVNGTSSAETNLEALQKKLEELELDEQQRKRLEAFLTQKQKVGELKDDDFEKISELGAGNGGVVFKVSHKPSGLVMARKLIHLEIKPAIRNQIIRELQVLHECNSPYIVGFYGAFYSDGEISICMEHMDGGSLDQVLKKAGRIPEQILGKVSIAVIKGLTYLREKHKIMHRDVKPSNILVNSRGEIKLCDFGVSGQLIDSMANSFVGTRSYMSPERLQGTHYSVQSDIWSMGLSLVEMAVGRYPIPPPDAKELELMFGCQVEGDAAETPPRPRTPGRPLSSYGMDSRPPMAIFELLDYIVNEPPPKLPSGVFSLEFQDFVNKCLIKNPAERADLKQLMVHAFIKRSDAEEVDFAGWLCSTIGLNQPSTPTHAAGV
Chain of c-Src (P12931 whole entry, species assumed): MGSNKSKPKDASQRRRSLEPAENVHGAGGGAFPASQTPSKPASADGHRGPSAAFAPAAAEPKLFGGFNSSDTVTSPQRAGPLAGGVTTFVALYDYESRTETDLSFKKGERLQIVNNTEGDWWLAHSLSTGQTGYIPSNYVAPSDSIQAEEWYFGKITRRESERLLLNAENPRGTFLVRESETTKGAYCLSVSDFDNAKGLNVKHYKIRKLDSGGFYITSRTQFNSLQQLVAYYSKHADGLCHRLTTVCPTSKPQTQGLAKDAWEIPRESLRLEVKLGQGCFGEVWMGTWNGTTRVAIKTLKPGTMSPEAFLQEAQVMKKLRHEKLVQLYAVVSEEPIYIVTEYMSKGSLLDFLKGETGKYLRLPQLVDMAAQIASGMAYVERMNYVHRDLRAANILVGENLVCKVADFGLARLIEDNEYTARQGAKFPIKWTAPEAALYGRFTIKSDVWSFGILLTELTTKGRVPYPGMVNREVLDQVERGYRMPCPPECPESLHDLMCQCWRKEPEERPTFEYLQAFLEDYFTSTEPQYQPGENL
Chain of PI 3-kinase γ (P48736 whole entry): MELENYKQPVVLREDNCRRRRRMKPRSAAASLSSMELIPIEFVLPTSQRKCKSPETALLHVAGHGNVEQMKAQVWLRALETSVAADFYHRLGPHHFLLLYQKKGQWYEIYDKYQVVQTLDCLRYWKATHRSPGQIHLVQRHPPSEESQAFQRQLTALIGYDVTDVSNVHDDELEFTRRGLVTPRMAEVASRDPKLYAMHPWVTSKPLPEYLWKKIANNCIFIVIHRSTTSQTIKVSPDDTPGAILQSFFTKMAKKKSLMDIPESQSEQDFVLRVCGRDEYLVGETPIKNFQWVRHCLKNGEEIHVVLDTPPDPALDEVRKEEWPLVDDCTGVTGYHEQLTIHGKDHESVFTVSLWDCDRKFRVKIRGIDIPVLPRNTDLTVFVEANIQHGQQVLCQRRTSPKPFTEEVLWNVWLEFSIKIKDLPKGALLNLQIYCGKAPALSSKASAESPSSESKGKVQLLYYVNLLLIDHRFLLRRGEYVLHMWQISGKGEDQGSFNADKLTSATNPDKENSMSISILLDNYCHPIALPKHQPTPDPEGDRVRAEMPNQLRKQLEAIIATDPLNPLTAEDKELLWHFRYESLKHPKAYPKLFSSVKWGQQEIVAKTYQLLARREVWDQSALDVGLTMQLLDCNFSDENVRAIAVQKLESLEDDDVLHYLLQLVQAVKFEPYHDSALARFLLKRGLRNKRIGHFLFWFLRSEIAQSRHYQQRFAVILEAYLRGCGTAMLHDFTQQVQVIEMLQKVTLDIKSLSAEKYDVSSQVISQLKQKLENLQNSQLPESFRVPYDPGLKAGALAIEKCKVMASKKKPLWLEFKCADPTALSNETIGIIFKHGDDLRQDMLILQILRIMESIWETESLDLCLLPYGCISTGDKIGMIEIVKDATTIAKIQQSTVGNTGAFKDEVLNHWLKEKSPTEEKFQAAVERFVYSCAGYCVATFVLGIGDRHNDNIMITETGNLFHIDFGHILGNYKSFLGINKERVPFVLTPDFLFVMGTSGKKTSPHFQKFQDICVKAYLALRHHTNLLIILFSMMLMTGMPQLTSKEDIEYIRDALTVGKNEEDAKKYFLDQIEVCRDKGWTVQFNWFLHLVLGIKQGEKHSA

For Nc1n[nH]c2nnc(-c3c(-c4ccccc4)nn4ccccc34)cc12 [FR180204, 5-(2-phenylpyrazolo[1,5-a]pyridin-3-yl)-1H-pyrazolo[3,4-c]pyridazin-3-amine], the “decrease in number of HCV copies per ml supernatant compared with control treated cells” value (HCV [1]) was roughly 50% and the “level of intracellular HCV RNA per μg total RNA” value (HCV [2]) was “increased”.
For N#CC(=C(/N)Sc1ccccc1N)/C(C#N)=C(\N)Sc1ccccc1N [U0126, 1,4-Diamino-2,3-dicyano-1,4-bis(2-aminophenylthio)butadiene], the “viral entry detected by GFP expression” value (HCV [3]) was “HCV entered the cells”, the “HCV copies per ml supernatant relative to supernatant of control treated cells” value (HCV [1]) was “one third” and the “level of intracellular HCV RNA per μg total RNA” value (HCV [2]) was “increased”.
In the case of Cc1cc(I)ccc1Nc1c(C(=O)NOCC2CC2)cc(F)c(F)c1F [PD198306, N-(Cyclopropylmethoxy)-3,4,5-trifluoro-2-[(4-iodo-2-methylphenyl)amino]-benzamide], the pIC50 (ERK) is listed as less than 6.00, the “concentration inhibiting isolated enzyme” value (MEK 1/2) is listed as 8 nM and the pIC50 (cdks) is listed as less than 5.40. For the same molecule, the pIC50 (c-Src) was less than 5.40, the “concentrations inhibiting Mek activity in synovial fibroblasts” value (Mek) was 30 to 100 nM and the pIC50 (PI 3-kinase γ) was less than 5.00.
In the case of COc1cc(O)c2c(c1)/C=C/C[C@]1(O)C(C=CC(=O)[C@H]1O)[C@H](C)OC2=O (stereo partly drawn) [L-783,277], the pIC50 (MEK-1) is given as 8.40.
For COc1cc(O)c2c(c1)/C=C/C[C@@]1(O)C(C=CC(=O)[C@H]1O)[C@H](C)OC2=O (some centres unmarked) [Ro 09-2210], the pIC50 (MEK-1) is given as 7.22.
For Cc1cc(O)c2c(=O)c3c(O)cc(O)c4c5c(O)cc(O)c6c(=O)c7c(O)cc(C)c8c1c2c(c34)c(c78)c65 [Hypericin], the pIC50 (ERK-2) is given as 8.40.
